We go through 53 compounds from ChEMBL document CHEMBL1201862, “PubChem BioAssay data set” (2004).

The structures appear in SMILES notation. Values joined by “and” are separate entries in the source; they are usually repeats but may differ in a detail not shown here. Equal values may be shown once. Active and inactive are the calls of the source.

The target in one assay is T1, Cytochrome P450 1A2 (Homo sapiens, UniProt P05177).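 Note: PubChem cytochrome P450 panel assay, CYP1A2 panel member.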
T1 sequence (P05177 whole entry): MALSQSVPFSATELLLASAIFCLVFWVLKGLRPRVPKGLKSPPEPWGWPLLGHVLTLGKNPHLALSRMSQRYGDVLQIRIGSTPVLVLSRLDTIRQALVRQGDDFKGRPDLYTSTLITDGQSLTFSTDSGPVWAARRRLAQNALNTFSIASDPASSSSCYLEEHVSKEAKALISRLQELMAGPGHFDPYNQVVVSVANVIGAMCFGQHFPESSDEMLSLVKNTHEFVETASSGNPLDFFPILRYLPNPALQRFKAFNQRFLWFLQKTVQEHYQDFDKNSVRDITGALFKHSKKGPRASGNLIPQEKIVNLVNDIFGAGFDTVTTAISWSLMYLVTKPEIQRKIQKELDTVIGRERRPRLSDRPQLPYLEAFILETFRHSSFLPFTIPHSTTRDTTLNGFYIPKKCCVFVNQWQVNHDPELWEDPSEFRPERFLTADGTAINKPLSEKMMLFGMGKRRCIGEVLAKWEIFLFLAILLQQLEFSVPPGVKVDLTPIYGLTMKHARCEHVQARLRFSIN

Assay [1] is described as follows: Luminescence Cell-Based Dose Response HTS to Identify Activators of Luciferase Translation or Activity in H4 […] Cells. [Related pubchem assays: 1829 (Project Summary), 1814 (Primary HTS)]. It counts as functional.
A further assay has as its target Cytochrome P450 3A4 (Homo sapiens, UniProt P08684).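 Note: CYP3A4 tested as one member of a cytochrome P450 panel screen.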
The next assay addresses Cytochrome P450 2C19 (Homo sapiens, UniProt P33261). The experiment in a line: Cytochrome panel assay with activity outcomes. Panel member name: p450-cyp2c19 Compounds with AC50 equal or less than 10 uM are considered active. It counts as functional. As to conditions: read-out: AC50.
A further assay concerns the target Cytochrome P450 2C9 (Homo sapiens, UniProt P11712).
Assay [2] deals with T2, Rac GTPase-activating protein 1 (Homo sapiens, UniProt Q9H0H5).
T2 sequence (Q9H0H5 whole entry): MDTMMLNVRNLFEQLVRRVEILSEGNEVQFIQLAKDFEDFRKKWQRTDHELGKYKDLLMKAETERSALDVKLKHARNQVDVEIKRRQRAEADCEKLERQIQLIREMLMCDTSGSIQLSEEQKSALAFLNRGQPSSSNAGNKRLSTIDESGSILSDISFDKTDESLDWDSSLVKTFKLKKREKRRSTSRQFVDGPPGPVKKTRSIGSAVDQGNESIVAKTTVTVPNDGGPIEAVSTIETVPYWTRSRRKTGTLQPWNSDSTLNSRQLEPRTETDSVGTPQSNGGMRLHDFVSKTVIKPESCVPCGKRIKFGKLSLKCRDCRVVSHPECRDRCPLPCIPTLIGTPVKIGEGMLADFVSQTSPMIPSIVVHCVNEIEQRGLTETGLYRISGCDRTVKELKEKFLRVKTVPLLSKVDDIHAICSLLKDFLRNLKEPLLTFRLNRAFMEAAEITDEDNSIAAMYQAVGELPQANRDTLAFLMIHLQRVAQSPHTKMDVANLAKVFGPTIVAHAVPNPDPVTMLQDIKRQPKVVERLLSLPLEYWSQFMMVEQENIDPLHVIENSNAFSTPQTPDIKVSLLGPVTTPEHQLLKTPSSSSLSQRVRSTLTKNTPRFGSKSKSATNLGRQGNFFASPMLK
The experiment in a line: blockers of MgcRacGAP-driven Rac1 GTP hydrolysis – biochemical, ADP Hunter fluorescence, primary and confirmatory, confirmation (AID 624330). It counts as functional.

In the next assay the test system is H4. The experiment in a line: Luminescence Cell-Based Dose Response HTS to Identify Activators of 5'UTR Stem-Loop Driven Prion Protein mRNA Translation in H4 Neuroglioblastoma Cells. [Related pubchem assays: 1829 (Project Summary), 1814 (Primary HTS)]. It counts as functional. As to conditions: Homo sapiens.

Sequence of Cytochrome P450 3A4 (P08684 whole entry): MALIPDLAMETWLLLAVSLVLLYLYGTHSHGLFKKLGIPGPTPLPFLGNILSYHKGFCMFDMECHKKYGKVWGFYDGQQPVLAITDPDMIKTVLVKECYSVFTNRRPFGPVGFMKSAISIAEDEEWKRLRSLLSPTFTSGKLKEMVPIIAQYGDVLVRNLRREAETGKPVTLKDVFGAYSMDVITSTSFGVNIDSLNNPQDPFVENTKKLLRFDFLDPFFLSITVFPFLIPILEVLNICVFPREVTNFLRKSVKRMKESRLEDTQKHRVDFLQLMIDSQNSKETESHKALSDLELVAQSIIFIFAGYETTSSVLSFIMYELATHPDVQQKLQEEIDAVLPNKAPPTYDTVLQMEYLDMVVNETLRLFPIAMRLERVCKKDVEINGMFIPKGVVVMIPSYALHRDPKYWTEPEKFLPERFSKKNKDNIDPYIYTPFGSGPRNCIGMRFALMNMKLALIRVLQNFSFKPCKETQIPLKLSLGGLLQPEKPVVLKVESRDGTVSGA
Sequence of Cytochrome P450 2C9 (P11712 whole entry): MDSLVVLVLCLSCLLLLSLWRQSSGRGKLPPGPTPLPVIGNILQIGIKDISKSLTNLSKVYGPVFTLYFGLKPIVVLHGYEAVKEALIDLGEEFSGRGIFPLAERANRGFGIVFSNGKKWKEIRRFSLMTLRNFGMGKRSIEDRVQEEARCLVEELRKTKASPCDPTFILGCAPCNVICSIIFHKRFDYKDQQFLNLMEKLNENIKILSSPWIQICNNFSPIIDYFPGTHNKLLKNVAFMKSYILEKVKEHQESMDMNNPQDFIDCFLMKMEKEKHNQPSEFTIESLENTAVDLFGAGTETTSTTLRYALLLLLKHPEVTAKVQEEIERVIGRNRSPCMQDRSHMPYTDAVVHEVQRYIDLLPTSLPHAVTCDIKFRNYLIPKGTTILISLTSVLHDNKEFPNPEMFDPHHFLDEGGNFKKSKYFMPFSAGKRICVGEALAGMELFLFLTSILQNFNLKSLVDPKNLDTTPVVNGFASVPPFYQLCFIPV
Sequence of Cytochrome P450 2C19 (P33261 whole entry): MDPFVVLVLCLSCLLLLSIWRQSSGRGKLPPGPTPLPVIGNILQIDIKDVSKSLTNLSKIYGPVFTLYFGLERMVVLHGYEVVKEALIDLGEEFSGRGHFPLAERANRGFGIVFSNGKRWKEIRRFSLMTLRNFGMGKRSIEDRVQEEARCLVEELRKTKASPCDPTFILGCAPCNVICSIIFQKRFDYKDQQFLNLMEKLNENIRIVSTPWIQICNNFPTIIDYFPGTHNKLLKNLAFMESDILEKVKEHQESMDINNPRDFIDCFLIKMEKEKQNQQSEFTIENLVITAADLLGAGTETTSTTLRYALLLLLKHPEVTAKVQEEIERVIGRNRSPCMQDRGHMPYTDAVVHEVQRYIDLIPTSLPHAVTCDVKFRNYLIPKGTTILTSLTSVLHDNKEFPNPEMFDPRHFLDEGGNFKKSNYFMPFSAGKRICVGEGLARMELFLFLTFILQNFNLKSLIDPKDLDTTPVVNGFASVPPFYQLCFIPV

Turning to `CN(CCc1ccc(Cl)c(Cl)c1)[C@H]1CCCC[C@H]1N1CCCC1`, the AC50 at Cytochrome P450 1A2 was 31.6 µM (inconclusive).
As to `Cc1ccc(NC(=O)c2ccc(OC(=O)CCN3C(=O)c4ccccc4C3=O)cc2)cc1`, in assay [1], the EC50 is 37.8 µM (active).
For `CCNc1ncc2nc(C)c(=O)n(CCc3ccccc3)c2n1`, the AC50 on Cytochrome P450 3A4 was 15.8 µM (inconclusive).
In the case of `CCNc1ncc2nc(-c3ccc(OC)cc3)c(=O)n(CCC#N)c2n1`, the AC50 at Cytochrome P450 3A4 is 15.8 µM (inconclusive); at Cytochrome P450 1A2, 10 µM (inconclusive).
In the same order, the values of `O=C(CN1CCN(c2ccc(Cl)cc2)CC1)Nc1ccc(F)c(F)c1` are 25.1 µM (inconclusive) and 14.1 µM (inconclusive).
Turning to `CC(=O)OC1COC(N2CCc3cc([N+](=O)[O-])ccc32)C(OC(C)=O)C1OC(C)=O` (stereo not given), the half-maximal activity concentration (AC50) on Cytochrome P450 3A4 was 25.1 µM (inconclusive); on Cytochrome P450 2C19 it was 3.98 µM (inconclusive).
`COc1ccc2oc(C(=O)c3ccccc3)c(N)c2c1`: the half-maximal activity concentration (AC50) on Cytochrome P450 3A4 is 14.1 µM (inconclusive); at Cytochrome P450 2C19, 5.01 µM (inconclusive).
With `COC(=O)C1CCN(c2cc(=O)n(C3CCCCC3)c(=O)[nH]2)CC1`, the AC50 on Cytochrome P450 3A4 is 14.1 µM (inconclusive); at Cytochrome P450 2C9, 7.94 µM (inconclusive).
Regarding `CC(C)C(=O)Nc1ccc(C(=O)NNC(=O)CCCOc2ccc(Cl)cc2Cl)cc1`, on Cytochrome P450 2C9, the AC50 is 2.51 µM (inconclusive).
For the compound `Cc1ccccc1-c1ccc2ncnc(N3CCNCC3)c2c1`, the AC50 on Cytochrome P450 3A4 and on Cytochrome P450 2C19 was 15.8 µM (inconclusive) in each case.
As for `O=C1CN2CCN(CC2)CC(=O)Nc2ccc(cc2)S(=O)(=O)c2ccc(cc2)NC(=O)CN2CCN(CC2)CC(=O)Nc2ccc(cc2)S(=O)(=O)c2ccc(cc2)N1`, the AC50 at Cytochrome P450 2C9 is 0.398 µM (inconclusive).
Take `COc1ccc(OC)c(CN2CCN(Cc3cccc4ccccc34)CC2)c1`: the half-inhibitory concentration (IC50) in assay [2] is 66 µM (active).
As for `COc1ccccc1N1CCN(CC(=O)c2ccc(F)cc2)CC1`, the IC50 in assay [2] is 157 µM (active).
The same measure, in the same setting: to `COc1ccc(NC2CCCN(C(=O)CCCn3cncn3)C2)cc1OC` (stereo not given) belongs 237 µM (active).
`Cc1cc(Br)ccc1NC(=O)CCSc1ccccc1`: the AC50 on Cytochrome P450 3A4 was 6.31 µM (inconclusive).
Take `COc1ccccc1-c1cncnc1NCCc1cnc[nH]1`: the AC50 at Cytochrome P450 2C9 is 0.501 µM (inconclusive).
`O=c1c(-c2cccc(Cl)c2)nc2cncnc2n1-c1ccccc1`: the half-maximal activity concentration (AC50) at Cytochrome P450 3A4 was 25.1 µM (inconclusive).
Regarding `COc1cccc(Cn2c(=O)c(-c3cn(C)c4ccccc34)nc3cnc(N4CCOCC4)nc32)c1`, the AC50 on Cytochrome P450 1A2 was 25.1 µM (inconclusive).
For the compound `COc1ccc2c(CC(=O)NCC3CCC(C(=O)O)CC3)cc(=O)oc2c1` (stereo not given), the AC50 was 15.8 µM (inconclusive) at Cytochrome P450 2C9 and 22.4 µM (inconclusive) at Cytochrome P450 1A2.
For the compound `CCCCOC(=O)CSc1nnc(-c2cc(OC)c(OC)c(OC)c2)o1`, the results for the AC50 at Cytochrome P450 3A4 and on Cytochrome P450 2C9 were 25.1 µM (inconclusive) and 8.91 µM (inconclusive), respectively.
Regarding `CN1CCN(CCOCCOc2ccc(Br)cc2Cl)CC1`, the IC50 in assay [2] was 84.1 µM (active).
Turning to `COCCNCc1nc(O)c2c(-c3ccccc3)c(C)sc2n1`, the IC50 in assay [2] is 225 µM (active).
For the compound `CS(=O)(=O)N1CCC2(CC1)CN(c1ncccn1)C2`, on Cytochrome P450 3A4, the AC50 was 20 µM (inconclusive).
Still for that read-out and setting: in the case of `COC(=O)[C@@]1(Cc2ccc(F)cc2)[C@@H]2C(=CC(=O)[C@H]2CC(=O)C(=O)N2CCCC2)CN1C(=O)c1ccccc1` it was 5.01 µM (inconclusive).
In the case of `CCOC(=O)c1cc(NC(=O)c2ccc(OC)cc2)c(=O)oc1-c1ccccc1`, the AC50 on Cytochrome P450 2C9 is 2.24 µM (inconclusive).
In the case of `Cc1c(C)c2ccc(OCC(=O)Nc3cccnc3)c(C)c2oc1=O`, the EC50 in assay [1] was 22 µM (active); in the assay with H4, 16 µM (active).
For the compound `CN(Cc1ccco1)c1ncncc1-c1ccc2c(c1)OCO2`, the AC50 at Cytochrome P450 2C9 is 0.794 µM (inconclusive).
In the case of `CCC(O)CNc1nc(-n2nc(C)cc2C)nc2sc3c(c12)CC(C)(C)OC3` (stereo not given), the figures for the AC50 at Cytochrome P450 3A4 and at Cytochrome P450 2C19 were 7.08 µM (inconclusive) and 20 µM (inconclusive), respectively.
Take `COc1cc(OC)c(OC)cc1CN1CCN(C(=O)c2cccc3ccccc23)CC1`: the half-inhibitory concentration (IC50) in assay [2] is 244 µM (active).
Regarding `COc1ccccc1-n1c(SCC(=O)N2CCCC2)nc2cccnc21`, the AC50 at Cytochrome P450 2C9 is 1 µM (inconclusive); at Cytochrome P450 1A2 it was 0.1 µM (inconclusive).
Turning to `O=C(CN(c1ccccc1)S(=O)(=O)c1ccccc1[N+](=O)[O-])NN=C1CCCCCCC1`, the half-maximal activity concentration (AC50) on Cytochrome P450 2C9 was 1.58 µM (inconclusive).
For `c1cnc(N2CC[C@@]3(CCCNC3)C2)nc1`, the AC50 was 31.6 µM (inconclusive) at Cytochrome P450 3A4 and 25.1 µM (inconclusive) at Cytochrome P450 1A2.
As to `O=C(Cc1ccccc1)NC(NCCc1ccccc1)C(Cl)(Cl)Cl` (stereo not given), the AC50 at Cytochrome P450 1A2 is 25.1 µM (inconclusive).
For `Cc1noc(C)c1C(=O)N1CCC2(CCN(Cc3ccncc3)CC2)CC1`, the AC50 at Cytochrome P450 3A4 is 12.6 µM (inconclusive).
In the case of `Cc1ccc(NC(=O)C(C)N2C(=O)C3C4CC(C(Br)C4Br)C3C2=O)cc1` (stereo not given), on Cytochrome P450 1A2, the AC50 was 25.1 µM (inconclusive).
Turning to `CCC(=O)NC(Nc1sc2c(c1C(=O)OC)CCCC2)(C(F)(F)F)C(F)(F)F`, the AC50 on Cytochrome P450 2C9 is 1.26 µM (inconclusive).
Consider `O=C(CSc1ccc2ccccc2c1)N1CCN(c2ccc(O)cc2)CC1`, for which the IC50 in assay [2] is 45.1 µM (active).
On to `CCOC(=O)Nc1ccc2c(c1)N(C(=O)CCN1CCN(C)CC1)c1ccccc1S2`, for which the AC50 on Cytochrome P450 3A4 and at Cytochrome P450 2C19 was 1.26 µM (inconclusive) each time.
Turning to `CCC(=O)N[C@@H]1CCc2cccc(OC)c2C1`, the AC50 on Cytochrome P450 2C9 is 15.8 µM (inconclusive).
On to `O=C(O)c1cc(-c2ccc(-c3ccccc3)cc2)nc2cc3ccccc3cc12`, for which the concentration at half-maximal activity (AC50) is 0.794 µM (inconclusive) on Cytochrome P450 1A2 and 3.98 µM (inconclusive) on Cytochrome P450 2C19.
Consider `O=C1CC(N(O)C2CC(=O)N(Cc3ccccc3)C2=O)C(=O)N1Cc1ccccc1` (stereo not given), for which the figures for the AC50 at Cytochrome P450 2C9, at Cytochrome P450 1A2 and on Cytochrome P450 2C19 were 11.2 µM (inconclusive), 39.8 µM (inconclusive) and 2 µM (inconclusive), respectively.
Regarding `CCOC(=O)c1sc(NC(=O)CCCCCN2C(=O)c3cccc4cccc(c34)C2=O)nc1C`, the figures for the AC50 on Cytochrome P450 3A4, on Cytochrome P450 2C9 and at Cytochrome P450 2C19 were 5.01 µM (inconclusive), 2.24 µM (inconclusive) and 6.31 µM (inconclusive), respectively.
Regarding `CC(C)CC1NC(=S)N(C2CCCCC2)C1=O` (stereo not given), at Cytochrome P450 3A4, the AC50 was 20 µM (inconclusive).
`CC(C)(C)C(=O)OCc1cn(-c2ccc(Cl)cc2)nn1`: on Cytochrome P450 2C9, the AC50 was 28.2 µM (inconclusive).
On the same count and under the same terms, to `Cc1ccccc1-c1ccc2ncnc(NCc3cccs3)c2c1` belongs 1.26 µM (inconclusive).
In the case of `CCc1noc(C)c1C(=O)Nc1nc(-c2cc(C)ccc2C)c(C)s1`, the AC50 on Cytochrome P450 2C9 is 7.94 µM (inconclusive); on Cytochrome P450 1A2 it was 15.8 µM (inconclusive); on Cytochrome P450 2C19, 7.08 µM (inconclusive).
Take `O=S(=O)(O)c1ccc(/N=N\c2ccc3c(S(=O)(=O)O)cccc3c2O)c2ccccc12`: the AC50 on Cytochrome P450 1A2 is 3.16 µM (inconclusive).
As for `COc1cc(C(=O)N/N=C(\C)c2ccc(NC(=O)Cc3ccccc3)cc2)ccc1O`, in assay [2], the IC50 is 145 µM (active).
Still for that read-out and setting: in the case of `CN(C)/N=C/c1ccc(OC(=O)c2cccc([N+](=O)[O-])c2)cc1` it was 50.4 µM (active).
Turning to `COc1ccc(CNc2ncncc2-c2ccccc2OC)c(OC)c1`, the AC50 at Cytochrome P450 2C9 was 0.794 µM (inconclusive).
For `N#CC(C#N)=Cc1ccc([N+](=O)[O-])c(O)c1`, the AC50 was 1.58 µM (inconclusive) at Cytochrome P450 3A4, 31.6 µM (inconclusive) at Cytochrome P450 2C9 and 31.6 µM (inconclusive) at Cytochrome P450 1A2.
On to `C[N+]1(C)CCN(c2ccccc2)CC1` [DIMETHYLPHENYLPIPERAZINIUM], for which the half-maximal activity concentration (AC50) at Cytochrome P450 3A4 was 10 µM (inconclusive).
Turning to `CCn1cc(C(=O)O)c(=O)c2cc3c(cc21)OCO3` [OXOLINIC ACID], the AC50 at Cytochrome P450 1A2 is 5.01 µM (inconclusive) and 2.51 µM (inconclusive).
